Measured values published in US10233186B2, “Inhibitors of activin receptor-like kinase” (BLUEPRINT MEDICINES CORPORATION, priority 2016, dated 2019).

What was measured:
[1] = target: T1, ALK2 R206H (GST-tagged mutant ALK2) (Homo sapiens, UniProt Q04771, R206H); assay: ALK binding assay (LANTHASCREEN TR-FRET competitive binding, displacement of Kinase Tracer 178); conditions: ALK2 R206H, LANTHASCREEN TR-FRET competitive binding; read-out: Binding Assay (IC50)
T1 construct: purchased Carna Bioscience or ThermoFisher 09-148 or PV6232
T1 sequence (Q04771 21-509 R206H): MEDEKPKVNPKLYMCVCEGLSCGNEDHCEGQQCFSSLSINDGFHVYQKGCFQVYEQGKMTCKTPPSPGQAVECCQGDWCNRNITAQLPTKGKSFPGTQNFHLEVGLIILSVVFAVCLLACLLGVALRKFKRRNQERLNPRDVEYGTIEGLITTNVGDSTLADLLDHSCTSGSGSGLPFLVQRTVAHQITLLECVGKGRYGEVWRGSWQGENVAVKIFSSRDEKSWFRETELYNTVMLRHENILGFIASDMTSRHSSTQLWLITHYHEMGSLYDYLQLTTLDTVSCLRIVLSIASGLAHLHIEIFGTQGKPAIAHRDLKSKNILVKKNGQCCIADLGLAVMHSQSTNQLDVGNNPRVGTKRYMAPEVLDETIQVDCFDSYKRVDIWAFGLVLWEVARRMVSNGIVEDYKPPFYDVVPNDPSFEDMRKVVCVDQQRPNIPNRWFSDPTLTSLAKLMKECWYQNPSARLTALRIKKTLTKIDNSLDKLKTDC

[2] = target: T2, human ALK2 R206H (Homo sapiens, UniProt Q04771, R206H); assay: Cell-based ALK2-R206H cell activity assay (Smad1-Ser463/Ser465 phosphorylation by AlphaLISA in HEK293-ALK2-R206H cells); conditions: read-out: Cell Line (Cell Assay IC50)
T2 construct: expressed in transfected cells; host or cells: HEK293 (ATCC CRL1573), lentivirus transduction, blasticidin selection
T2 sequence (Q04771 21-509 R206H): T1 sequence (Q04771 21-509 R206H)
Procedure, shortened: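 Stable HEK293 cells expressing C-terminally FLAG-tagged human ALK2 R206H (lentiviral, blasticidin-selected) were treated with compounds in 10-point, 3-fold dilutions from 10 μM or 1 μM top, in duplicate. Smad1 Ser463/Ser465 phosphorylation was read by AlphaLISA.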

SMILES | IC50 [1] [nM] | IC50 [2] [nM]
CC(C)N1CCN(c2ccc(-c3cc4c(N5CCN(C(=O)[C@H]6C[C@H]6F)CC5)ccnn4c3)cc2)CC1 [Compound 350] | < 10 | < 100
CCNC(=O)N1CCN(c2ccnn3cc(-c4ccc(C5(O)CCCN(C(C)C)C5)cc4)cc23)CC1 (stereo not shown) [Compound 351] | < 10 | < 100
CCNC(=O)N1CCN(c2ccnn3cc(-c4ccc(C5(O)CCN(C(C)C)CC5)cc4)cc23)CC1 [Compound 352] | < 10 | 100 to 500
CC(C)N1CCC(c2ccc(-c3cc4c(N5CCN(C(=O)NCCO)CC5)ccnn4c3)cc2)CC1 [Compound 353] | < 10 | 100 to 500
CCNC(=O)N1CCN(c2ccnn3cc(-c4ccc(C5CCN(C(C)C)CC5)c(F)c4)cc23)CC1 [Compound 354] | < 10 | < 100
CCN1CCC(c2ccc(-c3cc4c(N5CCN(C(=O)C6CC6)CC5)ccnn4c3)cc2)C(F)(F)C1 (stereo not shown) [Compound 355] | 10 to 50 | > 500
CCOC(=O)N1CCN(c2ccnn3cc(-c4ccc(C5CCN(C(C)C)CC5)c(F)c4)cc23)CC1 [Compound 357] | < 10 | < 100
O=C(C1CC1)N1CCN(c2ccnn3cc(-c4ccc(N5CCN(CC(F)F)CC5)cc4)cc23)CC1 [Compound 359] | < 10 | > 500
CCN1CCN(c2c(F)cc(-c3cc4c(N5CCN(C(=O)C6CC6)CC5)ccnn4c3)cc2F)CC1 [Compound 360] | < 10 | 100 to 500
CCN1CCN(c2ccc(-c3cc4c(N5CCN(C(=O)C6CC6(F)F)CC5)ccnn4c3)cc2)CC1 (stereo not shown) [Compound 361] | < 10 | 100 to 500
O=C(C1CC1)N1CCN(c2ccnn3cc(-c4ccc(N5CCNCC5)cc4OC(F)F)cc23)CC1 [Compound 363] | < 10 | 100 to 500
CC(C)N1CC[C@@H](c2ccc(-c3cc4c(N5CCN(C(=O)[C@H]6C[C@H](C#N)C6)CC5)ccnn4c3)cc2)C1 [Compound 364] | < 10 | < 100
CC(C)N1CCC(c2ccc(-c3cc4c(N5CCN(C(=O)[C@H]6C[C@@H]6C#N)CC5)ccnn4c3)cc2)CC1 [Compound 365] | < 10 | < 100
CC(C)N1CC[C@H](c2ccc(-c3cc4c(N5CCN(C(=O)[C@H]6C[C@H](C#N)C6)CC5)ccnn4c3)cc2)C1 [Compound 366] | < 10 | < 100
CCN1CCN(c2ccc(-c3cc4c(N5CCN(C(=O)C6CC(C#N)C6)CC5)ccnn4c3)cc2)CC1 (stereo not shown) [Compound 367] | < 10 | < 100
CC(C)N1CC[C@H](c2ccc(-c3cc4c(N5CCN(C(=O)N6CC(C#N)C6)CC5)ccnn4c3)cc2)C1 [Compound 368] | < 10 | < 100
CC(C)N1CC[C@@H](c2ccc(-c3cc4c(N5CCN(C(=O)N6CC(C#N)C6)CC5)ccnn4c3)cc2)C1 [Compound 369] | < 10 | < 100
CCN1CCC(c2ccc(-c3cc4c(N5CCN(C(=O)N6CC(C#N)C6)CC5)ccnn4c3)cc2)CC1 [Compound 370] | < 10 | < 100
N#C[C@H]1CC[C@H](C(=O)N2CCN(c3ccnn4cc(-c5ccc(N6CCNCC6)cc5)cc34)CC2)CC1 [Compound 371] | < 10 | < 100
O=C(C1CC1)N1CCN(c2ccnn3cc(-c4ccc(N5CCNC(C(F)(F)F)C5)cc4)cc23)CC1 (stereo not shown) [Compound 373] | 10 to 50 | > 500
N#C[C@H]1CC[C@H](C(=O)N2CCN(c3ccnn4cc(-c5ccc(C6CNCCO6)cc5)cc34)CC2)CC1 (stereo partly shown) [Compound 375] | < 10 | < 100
CCN1CCN(c2ccc(-c3cc4c(N5CCN(C(=O)N6CC(C#N)C6)CC5)ccnn4c3)cc2)CC1 [Compound 376] | < 10 | < 100
CC(C)N1CCC(c2ccc(-c3cc4c(N5CCN(C(=O)NCCC#N)CC5)ccnn4c3)cc2)CC1 [Compound 377] | < 10 | 100 to 500
CCN1CCC(c2ccc(-c3cc4c(N5CCN(C(=O)N6CCCCC6)CC5)ccnn4c3)cc2)CC1 [Compound 379] | < 10 | 100 to 500
CC(C)N1CCC(c2ccc(-c3cc4c(N5CCN(C(=O)NC6CCC6)CC5)ccnn4c3)cc2)CC1 [Compound 380] | < 10 | < 100

SMILES | IC50 [1] [nM] | IC50 [2] [nM]
CC(C)N1CCCC(c2ccc(-c3cc4c(N5CCN(C(=O)[C@H]6C[C@H](O)C6)CC5)ccnn4c3)cc2)C1 (stereo partly shown) [Compound 381] | < 10 | < 100
CCN1CCC(c2ccc(-c3cc4c(N5CCN(C(=O)[C@H]6C[C@H](O)C6)[C@H](C)C5)ccnn4c3)cc2)CC1 [Compound 382] | < 10 | < 100
CCN1CCC(c2ccc(-c3cc4c(N5CCN(C(=O)C6CC(C)(O)C6)CC5)ccnn4c3)cc2)CC1 (stereo not shown) [Compound 383] | < 10 | < 100
CCN1CCC(c2ccc(-c3cc4c(N5CCN(C(=O)[C@H]6C[C@](C)(O)C6)CC5)ccnn4c3)cc2)CC1 [Compound 384] | < 10 | < 100
CC(C)N1CCC[C@@H](c2ccc(-c3cc4c(N5CCN(C(=O)[C@H]6C[C@H](O)C6)CC5)ccnn4c3)cc2)C1 [Compound 385] | < 10 | < 100
CC(C)N1CCC(c2ccc(-c3cc4c(N5CCN(C(=O)OCC6CC6)CC5)ccnn4c3)cc2)CC1 [Compound 386] | < 10 | 100 to 500
CC(C)N1CCC[C@H](c2ccc(-c3cc4c(N5CCN(C(=O)[C@H]6C[C@H](O)C6)CC5)ccnn4c3)cc2)C1 [Compound 387] | < 10 | < 100
COC1(c2ccc(-c3cc4c(N5CCN(C(=O)C6CC6)CC5)ccnn4c3)cc2)CCCN(C(C)C)C1 (stereo not shown) [Compound 388] | < 10 | < 100
CCN1CCN(CCOc2ccc(-c3cc4c(N5CCN(C(=O)C6CC6)CC5)ccnn4c3)cc2)CC1 [Compound 390, cyclopropyl(4-(6-(4-(2-(4-ethylpiperazin-1-yl)ethoxy)phenyl)pyrrolo[1,2-b]pyridazin-4-yl)piperazin-1-yl)methanone] | 10 to 50 | 100 to 500
CCN1CCN(c2ccc(-c3cc4c(N5CCN(C(=O)C6CC(C)(O)C6)CC5)ccnn4c3)cc2)CC1 (stereo not shown) [Compound 391] | < 10 | < 100
CC[C@H](C)NC(=O)N1CCN(c2ccnn3cc(-c4ccc(C5CCN(C(C)C)CC5)cc4)cc23)CC1 [Compound 393] | < 10 | 100 to 500
CCNC(=O)N1CCN(c2ccnn3cc(-c4ccc(C5(OC)CCN(C(C)C)CC5)cc4)cc23)CC1 [Compound 399] | < 10 | < 100
CCNC(=O)N1CCN(c2ccnn3cc(-c4ccc(C5(OC)CCCN(C(C)C)C5)cc4)cc23)CC1 (stereo not shown) [Compound 400] | < 10 | < 100
COCCOC(=O)N1CCN(c2ccnn3cc(-c4ccc(C5CCN(C(C)C)CC5)cc4)cc23)CC1 [Compound 401] | < 10 | 100 to 500
CCN1CCN(c2ccc(-c3cc4c(N5CCN(C(=O)C6CC(F)(F)C6)CC5)ccnn4c3)cc2)CC1 [Compound 402] | < 10 | 100 to 500
CCN1CC2(C1)CN(c1ccc(-c3cc4c(N5CCN(C(=O)N6CC(C#N)C6)CC5)ccnn4c3)cc1)C2 [Compound 404] | < 10 | 100 to 500
CC(C)N1CC(c2ccc(-c3cc4c(N5CCN(C(=O)[C@H]6CC[C@H](C#N)CC6)CC5)ccnn4c3)cc2)C1 [Compound 406] | < 10 | < 100
CC(C)N1CCC(c2ccc(-c3cc4c(N5CCN(C(=O)[C@H]6C[C@@H]6C#N)[C@H](C)C5)ccnn4c3)cc2)CC1 [Compound 407] | < 10 | < 100
CC(C)N1CCC[C@@H](c2ccc(-c3cc4c(N5CCN(C(=O)[C@H]6C[C@H](C#N)C6)CC5)ccnn4c3)cc2)C1 [Compound 408] | < 10 | < 100
CC(C)N1CCC[C@H](c2ccc(-c3cc4c(N5CCN(C(=O)[C@H]6C[C@H](C#N)C6)CC5)ccnn4c3)cc2)C1 [Compound 409] | < 10 | < 100
CC(C)N1CCCC(c2ccc(-c3cc4c(N5CCN(C(=O)N6CC(C#N)C6)CC5)ccnn4c3)cc2)C1 (stereo not shown) [Compound 411] | < 10 | 100 to 500
CCN1CCC(c2ccc(-c3cc4c(N5CCN(C(=O)N6CC(C#N)C6)[C@H](C)C5)ccnn4c3)cc2)CC1 [Compound 412] | < 10 | < 100
CC(C)N1CCN(c2ccc(-c3cc4c(N5CCN(C(=O)[C@H]6C[C@H](C#N)C6)CC5)ccnn4c3)cc2)CC1 [Compound 413] | < 10 | < 100
CCN1CCC(c2ccc(-c3cc4c(N5CCN(C(=O)C6CCC(C)CC6)CC5)ccnn4c3)cc2)CC1 (stereo not shown) [Compound 415] | < 10 | < 100
CC(C)N1CC[C@H](c2ccc(-c3cc4c(N5CCN(C(=O)[C@H]6CC[C@H](O)CC6)CC5)ccnn4c3)cc2)C1 [Compound 418] | < 10 | < 100
